Measurements: ChEMBL document CHEMBL6103632, “Seven New Guanidine Derivatives and One New Hypoxanthine Derivative Isolated from the Scorpion Buthus martensii and Potential Anti-Neuroinflammatory Activity” (J Nat Prod, 2025)
Active and inactive are the calls of the source. No cut-off for these calls is given here.

What was measured:
[1] = Cytotoxicity against mouse BV-2 cells assessed as cell viability at 20 uM incubated for 24 hr by CCK-8 assay; assay type: toxicity, cell-based; conditions: read-out: Activity
[2] = test system: BV-2; test: Antineuroinflammatory activity in LPS-induced mouse BV-2 cells assessed as reduction in ROS level pretreated with LPS for 4 hrs followed by compound treatment for 24 hrs by ROS probe based microscopy; assay type: functional, cell-based; conditions: dose 20.0 µM
[3] = test system: BV-2; test: Antineuroinflammatory activity in LPS-induced mouse BV-2 cells assessed as reduction in IL-1beta level at 20 uM pretreated with LPS for 4 hrs followed by compound treatment for 24 hrs by ELISA analysis; assay type: functional, cell-based
[4] = test system: BV-2; test: Antineuroinflammatory activity in LPS-induced mouse BV-2 cells assessed as reduction in TNF-alpha level at 20 uM pretreated with LPS for 4 hrs followed by compound treatment for 24 hrs by ELISA analysis; assay type: functional, cell-based
[5] = test system: Mitochondrial membrane; test: Induction of mitochondrial membrane potential in LPS-induced mouse BV-2 cells assessed as reduction in ratio of red to green fluorescence intensity at 20 uM pretreated with LPS for 4 hrs followed by compound treatment for 24 hrs by JC-1 staining based assay; assay type: cell membranes
[6] = test system: BV-2; test: Antineuroinflammatory activity in LPS-induced mouse BV-2 cells assessed as reduction in IL-6 level at 20 uM pretreated with LPS for 4 hrs followed by compound treatment for 24 hrs by ELISA analysis; assay type: functional, cell-based

SMILES	viability at 24 h, 20 µM [1]	further results
N=C(N)NCCCCNC(=O)Cc1ccc(O)c(Cl)c1	> 75%	
N=C(N)NCCCCNC(=O)Cc1c[nH]c2ccccc12	> 75%	
N=C(N)NCCCCNC(=O)c1c[nH]c2ccccc12	> 75%	
COc1ccc2[nH]cc(CCNC(C)=O)c2c1		Activity [2]: Dose-dependent-effect
N=C(N)NCCCCNC(=O)Cc1cc(Cl)c(O)c(Cl)c1	> 75%	
N=C(N)NCCCCNC(=O)Cc1ccccc1	> 75%	
N=C(N)NCCCCNC(=O)c1cccnc1	> 75%	
N=C(N)NCCCCNC(=O)c1ccc(O)cc1	> 75%	
N=C(N)NCCCCn1cnc2ccccc2c1=O	> 75%	
CC(=O)CC(C)(C)n1cnc2c(=O)[nH]cnc21	> 75%	
COc1cc(CC(=O)NCCCCNC(=N)N)ccc1O	> 75%	Activity [3]: Active; Activity [4]: Active; Activity [5]: Active; Activity [6]: Active
N=C(N)NCCCCNC(=O)c1ccccc1	> 75%	
N=C(N)NCCCCNC(=O)Cc1ccc(O)cc1	> 75%	
CCC/C=C/C(=O)NCCCCNC(=N)N	> 75%	
